By MIC is commonly meant the lowest concentration found to suppress growth. As usually defined, the IC50 is the concentration that inhibits the measured activity by half.

The values that follow come from PMC9598656, “In Vitro Activity of Robenidine Analogues NCL259 and NCL265 against Gram-Negative Pathogens” (Antibiotics, 2022).

One assay has as its system E. coli BW 25113 (∆AcrB). In words: MIC, efflux-pump mutant. The class given is cell-based, Escherichia coli. The note with it: for reduction of MIC in the ∆AcrB mutant compared to wild-type: E. coli BW 25113 ∆AcrB vs wild-type parent; for MIC: Escherichia coli, read-out: MIC Values. The method, then:
(§1) A variety of Gram-negative reference strains (E. coli ATCC 25922, E. coli ATCC 10763, P. aeruginosa PAO1, P. aeruginosa ATCC 27853, A. baumannii ATCC 12457, A. baumannii ATCC 19606, K. pneumoniae ATCC 4352 and K. pneumoniae ATCC 33495) were used for initial screening and combination testing with PMB. The organisms were speciated using biochemical testing and MALDI-TOF mass spectrometry (Bruker, Preston, VIC, Australia). Activity testing of NCL259 and NCL265 was also carried out on 51 extraintestinal clinical E. coli isolates from companion animals, and 83 porcine and bovine enterotoxigenic E. coli (ETEC) isolates from the Australian Centre for Antimicrobial Resistance Ecology collection. E. coli wild-type (BW 25113) and its mutant BW 25113∆AcrB, in which the inner membrane component AcrB of the tripartite multidrug efflux system AcrA/AcrB/TolC has been deleted, were obtained from the bacterial collection held at Health and Biomedical Innovation, Clinical and Health Sciences, The University of South Australia. All isolates were cultured on sheep blood agar (SBA) plates at 37 °C for 18 h before being subcultured into Luria Bertaini (LB) (Oxoid, Scoresby, VIC, Australia) broth and grown to A600nm = 0.5 (equivalent to approx. 1.5 × 10^8 colony-forming units (CFU)/mL).
(§2) MICs for NCL259 and NCL265 (serial two-fold dilutions commencing at 256 µg/mL) were determined (in duplicate) in round bottom 96–well microtitre trays (Sarstedt 82.1582.001), using the broth micro-dilution method recommended by the Clinical and Laboratory Standards Institute (CLSI). We have shown previously that robenidine can chelate calcium ions from cation-adjusted Mueller-Hinton broth, which causes the loss of activity of robenidine. Therefore, LB broth was used in this study. Additionally, considering the low solubility of robenidine and its analogues in aqueous solutions, two-fold serial dilutions of stock solutions of these compounds were prepared in 100% DMSO [21]. The MIC for ampicillin against each isolate was determined for each test to serve as an internal quality control. The MICs of isolates were determined by visual reading and using an EnSpire Multimode Plate Reader 2300 at A600nm.

The subject of a further assay is K. pneumoniae ATCC 4352. In words: MIC, broth micro-dilution. The class given is cell-based, Klebsiella pneumoniae. Conditions: Klebsiella pneumoniae, ATCC4352, read-out: MIC, Single Drug. How it is done:
as §1, §2

The subject of a further assay is K. pneumoniae ATCC 33495. In words: MIC, broth micro-dilution. The note with it: Klebsiella pneumoniae, ATCC33495, read-out: MIC, Single Drug. The format is cell-based, Klebsiella pneumoniae. How it is done:
as §1, §2

In a further assay the test system is E. coli ATCC 10763. In words: Checkerboard assay with PMB. The format is cell-based, Escherichia coli. Conditions: for MIC, Combination: NCL259 or NCL265 with PMB; for Combination Effect / FICI: with PMB. The method, then: (§3) MICs of NCL259 or NCL265 in the presence of the efflux pump inhibitor, PAβN were determined using a checkerboard assay. […] Briefly, a two-fold serial dilution of each antimicrobial solution was prepared in its appropriate solvent (e.g., DMSO for robenidine analogues and Milli-Q water for PAβN), and 1 μL of each dilution was added from wells 12 to 3 (12.8–0.25 μg/mL for robenidine analogues, and 32–2 μg/mL for PAβN). Thereafter, 89 μL of LB broth was added to each well followed by the addition of 10 μL of bacterial suspension (1–5 × 10^6 CFU/mL) to each well. In this manner, the final concentration of DMSO in each well was 1%. The plate was subsequently incubated at 37 °C for 24 h. The resazurin assay was used for assessment of drug susceptibility of NCL259 and NCL265 (Supplementary Table S1–S6). The same method was also used to test the MICs of NCL259 or NCL265 in the presence of PMB against a range of Gram-negative reference strains (E. coli ATCC 25922, E. coli ATCC 10763, P. aeruginosa PAO1, P. aeruginosa ATCC 27853, A. baumannii ATCC 12457, A. baumannii ATCC 19606, K. pneumoniae ATCC 4352 and K. pneumoniae ATCC 33495). Stock solutions were prepared prior to use (25.6–0.25 mg/mL for robenidine analogues; 12.8–0.25 mg/mL for PMB). The interaction of two antibiotics was calculated as the fractional inhibitory concentration index (FICI) using the following formula:(1) FICI=MICA in combination/MICA alone+MICB in combination/MICB alone where A is NCL259 or NCL265 and B is PAβN or PMB. According to FICI calculations, the interaction between two compounds were interpreted as follows: synergistic (FICI ≤ 0.5); additive or partially synergistic (0.5 < FICI ≤ 1); indifferent (1 < FICI ≤ 4); and antagonistic (FICI > 4), as described previously. The dose reduction index (DRI) was used to describe the difference between the effective doses of NCL259 or NCL265 in combination with PMB or PAβN in comparison to their individual doses, using the following formula:(2) DRI=MICA alone/MICA in combination
(§4) Evaluation of DRI is important clinically because it can allow the dose of a potentially toxic drug to be lowered in combination with another compound without reducing the drug’s efficacy. A DRI higher than 1 is viewed as beneficial.

The test system of the next assay is E. coli ATCC 25922. In words: Checkerboard assay with PMB. The class given is cell-based, Escherichia coli. The note with it: for MIC, Combination: NCL259 or NCL265 with PMB; for Combination Effect / FICI: with PMB. The method, then:
as §3, §4

For assay [1], the system named is human Gram-negative isolates comprising 19 E. aerogenes, 20 E. coli, 19 E. cloacae, 20 K. pneumoniae and 16 K. oxytoca. The arrangement: method as in PMID 30318716. The note with it: panel of human Gram-negative isolates; cited from earlier work.
Assay [2] relates to K. pneumoniae 13GNB–429, K. pneumoniae 13GNB–550 and K. oxytoca 13GNB–582. In words: MIC in presence of PAβN, three resistant Klebsiella isolates. Conditions: three resistant Klebsiella spp. isolates. The class given is cell-based. The method, then:
as §3

The subject of assay [3] is Wild-type (E. coli BW 25113). In words: MIC, efflux-pump wild-type. Conditions: Escherichia coli, read-out: MIC Values. The class given is cell-based. How it is done:
as §1
as §2, with “Additionally, considering the low solubility of robenidine and its analogues in aqueous solutions, two-fold serial dilutions of stock solutions of these compounds were prepared in 100% DMSO [21].” left out

The next assay relates to P. aeruginosa ATCC 27853. Briefly: MIC, broth micro-dilution. The format is cell-based, Pseudomonas aeruginosa. The note with it: Pseudomonas aeruginosa, ATCC27853, read-out: MIC, Single Drug. The method, then: as §1, §2
Assay [4] relates to Caco-2 (human colorectal adenocarcinoma cell line). Briefly: In vitro cytotoxicity, WST-1. The format is cell-based. The note with it: Caco-2, 24 h. In general terms: Formazan colour is commonly taken as a measure of viable cells.
For assay [5], the system named is 51 clinical ExPEC isolates from companion animals and 83 porcine and bovine ETEC isolates. In words: MIC, broth micro-dilution, all animal clinical isolates. Conditions: ExPEC and ETEC isolates together. The class given is cell-based, Escherichia coli. How it is done: A variety of Gram-negative reference strains (E. coli ATCC 25922, E. coli ATCC 10763, P. aeruginosa PAO1, P. aeruginosa ATCC 27853, A. baumannii ATCC 12457, A. baumannii ATCC 19606, K. pneumoniae ATCC 4352 and K. pneumoniae ATCC 33495) were used for initial screening and combination testing with PMB. The organisms were speciated using biochemical testing and MALDI-TOF mass spectrometry (Bruker, Preston, VIC, Australia). Activity testing of NCL259 and NCL265 was also carried out on 51 extraintestinal clinical E. coli isolates from companion animals, and 83 porcine and bovine enterotoxigenic E. coli (ETEC) isolates from the Australian Centre for Antimicrobial Resistance Ecology collection. […]
MICs for NCL259 and NCL265 (serial two-fold dilutions commencing at 256 µg/mL) were determined (in duplicate) in round bottom 96–well microtitre trays (Sarstedt 82.1582.001), using the broth micro-dilution method recommended by the Clinical and Laboratory Standards Institute (CLSI). […] The MIC for ampicillin against each isolate was determined for each test to serve as an internal quality control. The MICs of isolates were determined by visual reading and using an EnSpire Multimode Plate Reader 2300 at A600nm.

Setting [6] is: first of two independent experiments.
The mark [7] stands for this setting: second of two independent experiments.

The structures appear in SMILES notation. ≈ marks a conversion by molar mass, not a printed value.

Consider `[H]/N=C(\N)NN=C(CC1CCCCC1)c1ccc(Cl)cc1` [NCL259, (E)-2-(1-(4-chlorophenyl)-2-cyclohexylethylidene)hydrazine-1-carboximidamide], for which the “reduction of MIC in the ∆AcrB mutant compared to wild-type” value in the assay with E. coli BW 25113 (∆AcrB) is 16 fold. In addition, the MIC in the assay with E. coli BW 25113 (∆AcrB) is 4 µg/mL; in the assay with K. pneumoniae ATCC 4352, 8 µg/mL; in the assay on K. pneumoniae ATCC 33495, 64 µg/mL; in [3], 64 µg/mL; with P. aeruginosa ATCC 27853 it was 64 µg/mL. Besides, the “MIC, Combination” value worked out at 0.25 µg/mL in the assay on E. coli ATCC 10763 and 1 µg/mL in the assay on E. coli ATCC 25922. In addition, the “Dose Reduction Index (DRI) PMB:NCL259” value in the assay on E. coli ATCC 10763 (PMB + NCL259) stood at 256; with E. coli ATCC 25922 (PMB + NCL259), 16. The “Combination Effect” value with E. coli ATCC 10763 was “Additivity (additive or partially synergistic, 0.5 < FICI ≤ 1)”; with E. coli ATCC 25922, “Additivity (additive or partially synergistic, 0.5 < FICI ≤ 1)”. The FICI is reported as 0.504 in the assay on E. coli ATCC 10763 and 0.563 in the assay on E. coli ATCC 25922. Further, the MIC range in assay [1] was 2 to 64 µg/mL; in [5], 4 to 64 µg/mL. The “MIC in the presence of PAβN” value in [2] lay within 8 to 16 µg/mL. In addition, in assay [2], the “reduction of MIC in the presence of PAβN” value is 16- to 32 fold. The figures for the IC50 in assay [4] (setting [6]) and in [4] (setting [7]) were less than 1 µg/mL and 3 µg/mL (≈ 10.2 µM), respectively.
For `[H]/N=C(\N)NN=C(CCCCCC)c1ccc(Cl)cc1` [NCL265, (E)-2-(1-(4-chlorophenyl)heptylidene)hydrazine-1-carboximidamide], the “reduction of MIC in the ∆AcrB mutant compared to wild-type” value in the assay with E. coli BW 25113 (∆AcrB) was found to be 16 fold. In addition, the MIC in the assay with E. coli BW 25113 (∆AcrB) is 1 µg/mL; in the assay with K. pneumoniae ATCC 4352 it was 2 µg/mL; with K. pneumoniae ATCC 33495, 64 µg/mL; in assay [3], 16 µg/mL; with P. aeruginosa ATCC 27853, 32 µg/mL. Further, the “MIC, Combination” value in the assay with E. coli ATCC 10763 is 0.25 µg/mL; with E. coli ATCC 25922 it was 1 µg/mL. Further, the “Dose Reduction Index (DRI) PMB:NCL265” value in the assay with E. coli ATCC 10763 (PMB + NCL265) turned out to be 256; in the assay with E. coli ATCC 25922 (PMB + NCL265) it was 4. In addition, the “Combination Effect” value in the assay with E. coli ATCC 10763 is “Synergism (synergistic, FICI ≤ 0.5)”; in the assay with E. coli ATCC 25922 it was “Additivity (additive or partially synergistic, 0.5 < FICI ≤ 1)”. For the same molecule, the FICI in the assay on E. coli ATCC 10763 amounted to 0.254; with E. coli ATCC 25922, 0.75. Also, the MIC range in assay [1] was 2 to 64 µg/mL; in assay [5] it was 2 to 16 µg/mL. The “MIC in the presence of PAβN” value in [2] lay in the range of 2 to 4 µg/mL. In [2], the “reduction of MIC in the presence of PAβN” value was 64- to 128 fold. Also, the values for the IC50 in assay [4] (setting [6]) and in assay [4] (setting [7]) were less than 1 µg/mL and less than 2 µg/mL, respectively.
